Measured values as given in patent US7807712B2, “Oxy substituted chalcones as antihyperglycemic and antidyslipidemic agents” (priority 2004, dated 2010).
Read-outs that look alike come from different tables or passages of the source.

Experiments:
sucrose loaded rats = experiment: Sucrose loaded rat model (SLM), antihyperglycemic activity; format: in vivo, rat (Charles Foster/Wistar); conditions: Rattus norvegicus, 2 h; 100 mg/kg oral; sucrose load 10.0 g/kg; AUC vs control, 30-120 min; read-out: % Fall in blood glucose levels SLM
Method: Male albino rats of Charles Foster/Wistar strain of average body weight 160±20 g were selected for this study. The blood glucose level of each animal was checked by glucometer using glucostrips (Boehringer Mannheim) after 16 h starvation. Animals showing blood glucose levels between 3.33 to 4.44 mM (60 to 80 mg/dl) were divided into groups of five to six animals in each. Animals of experimental group were administered suspension of the desired synthetic compound orally (made in 1.0% gum acacia) at a dose of 100-mg/kg-body weight. Animals of control group were given an equal amount of 1.0% gum acacia. A sucrose load (10.0 g/kg) was given to each animal orally exactly after 30 min post administration of the test sample/vehicle. Blood glucose profile of each rat was again determined at 30, 60, 90 and 120 min post administration of sucrose by glucometer. Food but not water was withheld from the cages during the course of experimentation. Quantitative glucose tolerance of each animal was calculated by Area Under Curve (AUC) method (Prism Software). Comparing the AUC of experimental and control groups determined the percentage antihyperglycemic activity. Statistical comparison was made by Dunnett's test.

[1] = system: streptozotocin-induced diabetic rats; experiment: Sucrose-challenged streptozotocin-induced diabetic rats (STZ-S), antihyperglycemic activity; format: in vivo, rat (Sprague Dawley); conditions: 100 mg/kg oral, sucrose load 2.5 g/kg, AUC vs control
Method: Male albino rats of Sprague Dawley strain of body weight […] were selected for this study. Streptozotocin (Sigma, USA) was dissolved in 100 mM citrate buffer pH 4.5 and calculated amount of the fresh solution was injected to overnight fasted rats (45 mg/kg) intraperitoneally. Blood glucose level was checked 48 h later by glucostrips and animals showing blood glucose values between 144 to 270 mg/dl (8 to 15 mM) were included in the experiment and termed diabetic. The diabetic animals were divided into groups consisting of five to six animals in each group. Animals of experimental groups were administered suspension of the desired test samples orally (made in 1.0% gum acacia) at a dose of 100-mg/kg-body weight. Animals of control group were given an equal amount of 1.0% gum acacia. A sucrose load of 2.5-g/kg body weight was given after 30 minutes of compound administration. After 30 minutes of post sucrose load blood glucose level was again checked by glucostrips at 30, 60, 90, 120, 180, 240, 300 min and at 24 h, respectively. Animals not found diabetic after 24 hours post treatment of the test sample were not considered and omitted from the calculations and termed as non-responders. […] Food but not water was withheld from the cages during the experimentation. Comparing the AUC of experimental and control groups determined the percent antihyperglycemic activity. Statistical comparison between groups was made by Student's ‘t’ test.

[2] = system: triton WR-1339 induced hyperlipidemic rats; experiment: Triton model, antidyslipidemic activity; format: in vivo, rat (Charles foster); conditions: Rattus norvegicus, 100 mg/kg oral
Method: Male Charles foster rats weighing 200-225 g were divided into control, hyperlipidemic and hyperlipidemic plus drug treated groups containing six animals in each group. Hyperlipidemia was induced by administration of triton WR-1339 (200 mg/kg i.p.). All animals were maintained on a special pellet diet and water ad libitum. Compounds and standard drug were macerated with 0.2% aqueous gum acacia suspension. The suspension was fed orally at the dose of 100 mg/kg simultaneously with triton in drug treated group. The animals of control group received the same amount of gum acacia by similar route of administration. At the end of the experiment, after 18 h, blood was withdrawn from retro orbital plexus and plasma was used for the assay of total cholesterol, phospholipid and triglycerides.
Cholesterol was estimated using the kit provided by Roche Diagnostics. Cholesterol esters are enzymatically hydrolyzed by cholesterol esterase (CE) to cholesterol and free fatty acids. Free cholesterol, including that originally present, is then oxidized by cholesterol oxidase (CO) to cholest-4-en-3-one and hydrogen peroxide. The hydrogen peroxide combines with hydroxy benzoic acid (HBA) and 4-aminoantipyrine (4AAA) in the presence of peroxidase (POD) to form a chromophore (quinoneimine dye), which may be quantitated at 500-505 nm. The intensity of red colour formed is directly proportional to the concentration of total cholesterol in the specimen and measured spectrophotometrically (Searcy, C. L. Diagnostic Biochemistry, 1969, McGraw Hill, New York; Ellefson, R. D.; Caraway, W. T. Fundamentals of clinical chemistry, 1976, Ed Tietz N W, 506-515.)
Triglycerides were estimated using the kit provided by Roche Diagnostics. Lipoprotein lipase hydrolyses triglycerides to yield glycerol and fatty acids. Glycerol kinase converts glycerol to glycerol-3-phosphate, which is oxidized by glycerol phosphate oxidase to dihydroxy acetone phosphate and hydrogen peroxide. In the presence of peroxidase, hydrogen peroxide oxidatively couples with 4-aminoantipyrine and 4-chloro phenol to produce red quinonimine dye. The intensity of red colour formed is directly proportional to the concentration of triglycerides in the specimen and is measured by photometrically (Wahlefeld, A. W.; Bergmeyer, H. U. Ed. Methods of enzymatic analysis, 2nd English edition, New York, N.Y., Academic press inc, 1831-1840.).
Serum (0.2 mL) and perchloric acid (1.0 mL) was digested at 180° C. for 1-1.5 h till the solution became colorless. The liberated inorganic phosphate (Pi) was measured by the method of Fiske and Subbarow (Fiske, C. H.; Subbarow, V. J. Biol. Chem. 1925, 66, 375.). 1 mL of 2.5% ammonium molybdate (prepared in 5 N sulphuric acid) and 0.5 mL reducing agent (4-amino naphthol sulphonic acid, 0.2%), sodium metabisulphite (2.4% w/v in distilled water) was added to the above tubes and mixed well. The reaction mixture was […] with 2.5 mL of triple distilled water and kept at 60° C. in water bath for 20 min. For standard, an appropriate amount of potassium dihydrogen phosphate dissolved in triple distilled water containing 2-10 μg phosphorus (Pi) was run simultaneously with the experiment tubes. The optical density of the blue colour was recorded at 620 nm against reagent blank. The values of Pi were converted into phospholipid by multiplying with 25 (a constant calibrated from Pi value of lecithin).

[3] = plasma phospholipid after 18 h, read-out: % Fall in lipid levels (Triton model) PL
[4] = plasma total cholesterol after 18 h, read-out: % Fall in lipid levels (Triton model) TC
[5] = plasma triglycerides after 18 h, read-out: % Fall in lipid levels (Triton model) TG

SMILES | inhibition in vivo at 100 mg/kg (sucrose loaded rats) [%] | % Fall in blood glucose levels STZ-S 5 h [1] | % Fall in blood glucose levels STZ-S 24 h [1] | inhibition in vivo at 100 mg/kg [2, 3] [%] | inhibition in vivo at 100 mg/kg [2, 4] [%] | inhibition in vivo at 100 mg/kg [2, 5] [%] | melting point [°C]
CCCCNCC(O)COc1ccc(C(=O)/C=C/c2ccc(OC)cc2)cc1 (stereo not shown) [Compound 27, 4′-[3-n-Butylamino-2-hydroxy-propoxy]-4-methoxy-chalcone] | 38 | NIL | NIL | 22 | 25 | 20 | 163 to 164
COc1ccc(/C=C/C(=O)c2cccc(OCC(O)CNC(C)C)c2)cc1 (stereo not shown) [Compound 29, 3′-[2-Hydroxy-3-iso-propylamino-propoxy]-4-methoxy-chalcone] | 6.85 | NIL | NIL | 27 | 33 | 27 | 102 to 103
COc1ccc(/C=C/C(=O)c2cccc(OCC(O)CNC(C)(C)C)c2)cc1 (stereo not shown) [Compound 30, 3′-[3-tert-Butylamino-2-hydroxy-propoxy]-4-methoxy-chalcone] | 20 |  | 11.3% | 25 | 27 | 30 | 83 to 84
CCCCNCC(O)COc1ccccc1C(=O)/C=C/c1ccc(OC)cc1 (stereo not shown) [Compound 31, 2′-[3-n-Butylamino-2-hydroxy-propoxy]-4-methoxy-chalcone] | 33.1 | NIL | NIL | 3 |  |  | 106 to 107
COc1ccc(/C=C/C(=O)c2ccccc2OCC(O)CNC(C)C)cc1 (stereo not shown) [Compound 32, 2′-[2-Hydroxy-3-iso-propylamino-propoxy]-4-methoxy-chalcone] | 47 |  | 2.77% | 15 | 22 | 29 | 88 to 89
CC(C)CNCC(O)COc1ccc(C(=O)/C=C/c2ccc3c(c2)OCO3)cc1 (stereo not shown) [Compound 35, 4′-[3-iso-Butylamino-2-hydroxy-propoxy]-3,4-methylenedioxy-chalcone] | 23.8 |  | 11.6% | 9 | 13 | 13 | 122 to 123
